From US10329317B2, “Quinoline derivative for use in the treatment and prevention of viral infections” (ABIVAX, priority 2015, dated 2019)
Like-named read-outs stand apart in the source and are kept apart here.

How the values were obtained:
[1] = Solubility compared with Compound 2 (statement only); format: physicochemical
[2] = system: HIV-1 strain YU2; test: HIV-1 production (p24 ELISA) in infected monocyte derived macrophages; format: cell-based
Method: HIV-1 strain YU2 was used to infect monocyte derived-macrophages from three different donors (donors 349, 350 and 351; respectively FIGS. 2A, 2B, and 2C panel) in the presence of increasing concentrations of the (glucuronidated) Compound 1, at 1.5 μM, 10 μM and 30 μM. The viral capsid protein p24 antigen was quantitated using standard ELISA protocol (expressed in pg/mL in y-axis). R-10 corresponds to untreated cells. […] To generate monocyte derived macrophages (MDMs), monocytes were isolated using CD14 microbeads (catalog no. 130-050-201; Miltenyi) and cultured in X-VIVO10 medium (Lonza) supplemented with GM-CSF 1000 U/ml and M-CSF 100 ng/ml for 6 days. Monocytes were seeded at a cell count of 50′000 cells per well in a 96 well plate. After 6 days medium was replaced with X-VIVO10 w/o Cytokines. After 2 days Macrophages were treated with Compound (1) o/n and next day infected with Yu-2 virus for 6 hrs, washed with PBS and cultured in medium containing the compounds for 12 days. Supernatant for p24 Elisa was collected 2 times a week. Cells were treated with 1.5 μM up to 30 μM and p24 antigen levels were monitored in culture supernatant over a 12 day period (R-10 corresponds to untreated cells) (FIG. 2).

[3] = First-in-man PK: compound (1) plasma levels after single oral ascending dose of compound (2); format: in vivo, human; settings: for AUC(0-t) / AUC(0-inf) / Cmax / half-life / Tmax: male, human, plasma; for AUC(0-t) / AUC(0-inf) / Cmax / half-life: po; for Tmax: read-out: tmax, median
Method: The present document details the pharmacokinetic (PK) results obtained in a first-in-man study with compound (2) consisting in a single oral ascending dose in healthy male subjects. Four (4) dose levels were investigated (50, 100, 150, and 200 mg).
At each dose level, 6 subjects were included and received a single oral dose of compound (2) so that a total of 24 subjects participated to the study and completed it. No study deviation was identified at the time of the PK analysis and thus, all subjects were included in the PK analysis.
In this study, plasma levels of compound (1) were measured.
PK blood sampling was initially defined up to 48 h post-dose.
Blood samples for assessment of compound (1) plasma levels are scheduled at the following time points: • Day 1 pre-dose, 0.33, 0.66, 1.00, 1.50, 2.00, 2.50, 3.00, 4.00, 6.00, 8.00, 10.00, and 12.00 h post-dose; • Day 2 24.00 and 36.00 h post-dose; • Day 3 48.00 h post-dose; • Day 10 240 h post-dose; • Day 24 576 h post-dose; • Day 45 1080 h post-dose.
Plasma concentrations were processed throughout the PK software for PK data generation. The PK parameters were calculated by non-compartmental analysis (NCA), using Phoenix® WinNonlin® (Pharsight Corporation) running on a personal computer.
For the calculation of the PK parameters and characteristics the following rules were applied: • All the plasma concentrations validated provided to the pharmacokineticist were used for the PK analysis. • The actual blood sampling time points related to the preceding administration was used. • At time points in the lag-time between time zero and the first concentration equal or above limit of quantification (LOQ), concentrations below LOQ were set to zero (0). Concentrations below limit of quantification (BLOQ) between 2 concentrations equal or above LOQ were considered as missing data. Trailing concentrations BLOQ were used in calculations. • If pre-dose concentration was missing, it was arbitrary set to zero (0) assuming that expected results would have been BLOQ.
For each subject receiving the active treatment in each cohort, the following PK parameters of compound (1) were to be derived:
Cmax The observed maximum concentration measured in plasma was obtained directly from the concentration-time data.
tmax The time at which Cmax was apparent, identified by inspection of the plasma drug concentration vs. time data by Phoenix® WinNonlin®.
AUC0-t The area under the concentration-time curve from time zero (pre-dose) to the time of last quantifiable concentration was calculated using a linear trapezoidal method.
ke The terminal plasma elimination rate-constant was estimated from log-linear regression analysis of the terminal phase of the plasma concentration-time profile. The number of points included in the terminal phase was determined by visual inspection of the semi-log plots of the plasma concentration-time profiles (at least 3). AUC0-∞ The AUC from time 0 to infinity was calculated as AUC0-∞=AUC0-t+AUCt-∞, where AUC0-t is the area under the concentration-time curve from time zero (pre-dose) to the time of last quantifiable concentration calculated using a […] trapezoidal method and AUCt-∞=Ct/ke, where Ct is the measured concentration at time of the last quantifiable concentration t. The extrapolated part of AUC0-∞ must be <20% for the value to be considered as reliable. t1/2 The apparent terminal elimination half-life was calculated as ln 2/ke, where ke is the elimination rate constant during the terminal phase determined by the log-linear regression obtained on at least the 3 last quantifiable concentrations and using actual blood sampling times. The correlation coefficient for the goodness of the fit of the regression line through the data points must be 0.8500 or higher, for the value to be considered reliable.

In the case of `O=C(O)[C@H]1O[C@@H](N(c2ccc(OC(F)(F)F)cc2)c2ccc3cccc(Cl)c3n2)[C@H](O)[C@@H](O)[C@@H]1O` [Compound 1, N-β-glucuronide of 8-chloro-N-(4-(trifluoromethoxy)phenyl)quinolin-2-amine], the “solubility relative to Compound 2” value [1] is reported as “more soluble”, the inhibition at 30 µM ([2]; Human immunodeficiency virus 1, Primary macrophage, 288 h, primary macrophages, 30 μM, 12 day period, read-out: inhibition of virus replication (p24 antigen in culture supernatant)) is reported as ≤ 60% and the toxicity ([2]; macrophages, 1.5 μM up to 30 μM) is reported as “low toxicity”. The “compound (1) plasma concentrations versus parent drug” value ([3]; after single oral compound (2), regardless of the dose) was “markedly higher”, the AUC(0-t) ([3]; 50 mg, 50 mg compound (2) single oral, N=6, read-out: AUC0-t, GM (geometric mean)) was 196 µg·h/mL and the AUC(0-t) ([3]; 50 mg, 50 mg compound (2) single oral, N=6, read-out: AUC0-t, Mean) was 209 µg·h/mL. For the same compound, the AUC(0-inf) ([3]; 50 mg, 50 mg compound (2) single oral, N=6, read-out: AUC0-∞, GM (geometric mean)) was 198 µg·h/mL, the AUC(0-inf) ([3]; 50 mg, 50 mg compound (2) single oral, N=6, read-out: AUC0-∞, Mean) was 212 µg·h/mL and the Cmax ([3]; 50 mg, 50 mg compound (2) single oral, N=6, read-out: Cmax, GM (geometric mean)) was 2540 ng/mL. For the same compound, the Cmax ([3]; 50 mg, 50 mg compound (2) single oral, N=6, read-out: Cmax, Mean) was 2630 ng/mL, the half-life ([3]; 50 mg, 50 mg compound (2) single oral, N=6, read-out: t1/2, GM (geometric mean) (converted)) was 95.7 h and the half-life ([3]; 50 mg, 50 mg compound (2) single oral, N=6, read-out: t1/2, Mean (converted)) was 97.3 h. For the same compound, the AUC(0-t) ([3]; 100 mg, 100 mg compound (2) single oral, N=6, read-out: AUC0-t, GM (geometric mean)) was 468 µg·h/mL, the AUC(0-t) ([3]; 100 mg, 100 mg compound (2) single oral, N=6, read-out: AUC0-t, Mean) was 499 µg·h/mL and the AUC(0-inf) ([3]; 100 mg, 100 mg compound (2) single oral, N=6, read-out: AUC0-∞, GM (geometric mean)) was 476 µg·h/mL. The AUC(0-inf) ([3]; 100 mg, 100 mg compound (2) single oral, N=6, read-out: AUC0-∞, Mean) was 505 µg·h/mL, the Cmax ([3]; 100 mg, 100 mg compound (2) single oral, N=6, read-out: Cmax, GM (geometric mean)) was 5400 ng/mL and the Cmax ([3]; 100 mg, 100 mg compound (2) single oral, N=6, read-out: Cmax, Mean) was 5720 ng/mL. The half-life ([3]; 100 mg, 100 mg compound (2) single oral, N=6, read-out: t1/2, GM (geometric mean) (converted)) was 111 h, the half-life ([3]; 100 mg, 100 mg compound (2) single oral, N=6, read-out: t1/2, Mean (converted)) was 111 h and the AUC(0-t) ([3]; 150 mg, 150 mg compound (2) single oral, N=6, read-out: AUC0-t, GM (geometric mean)) was 560 µg·h/mL. For the same compound, the AUC(0-t) ([3]; 150 mg, 150 mg compound (2) single oral, N=6, read-out: AUC0-t, Mean) was 659 µg·h/mL, the AUC(0-inf) ([3]; 150 mg, 150 mg compound (2) single oral, N=6, read-out: AUC0-∞, GM (geometric mean)) was 563 µg·h/mL and the AUC(0-inf) ([3]; 150 mg, 150 mg compound (2) single oral, N=6, read-out: AUC0-∞, Mean) was 664 µg·h/mL. For the same compound, the Cmax ([3]; 150 mg, 150 mg compound (2) single oral, N=6, read-out: Cmax, GM (geometric mean)) was 8270 ng/mL, the Cmax ([3]; 150 mg, 150 mg compound (2) single oral, N=6, read-out: Cmax, Mean) was 9240 ng/mL and the half-life ([3]; 150 mg, 150 mg compound (2) single oral, N=6, read-out: t1/2, GM (geometric mean) (converted)) was 95.7 h. It also gave a half-life ([3]; 150 mg, 150 mg compound (2) single oral, N=6, read-out: t1/2, Mean (converted)) of 99.2 h, an AUC(0-t) ([3]; 200 mg, 200 mg compound (2) single oral, N=6, read-out: AUC0-t, GM (geometric mean)) of 436 µg·h/mL and an AUC(0-t) ([3]; 200 mg, 200 mg compound (2) single oral, N=6, read-out: AUC0-t, Mean) of 559 µg·h/mL. The AUC(0-inf) ([3]; 200 mg, 200 mg compound (2) single oral, N=6, read-out: AUC0-∞, GM (geometric mean)) was 438 µg·h/mL, the AUC(0-inf) ([3]; 200 mg, 200 mg compound (2) single oral, N=6, read-out: AUC0-∞, Mean) was 560 µg·h/mL and the Cmax ([3]; 200 mg, 200 mg compound (2) single oral, N=6, read-out: Cmax, GM (geometric mean)) was 5900 ng/mL. The Cmax ([3]; 200 mg, 200 mg compound (2) single oral, N=6, read-out: Cmax, Mean) was 7910 ng/mL, the half-life ([3]; 200 mg, 200 mg compound (2) single oral, N=6, read-out: t1/2, GM (geometric mean) (converted)) was 87.8 h and the half-life ([3]; 200 mg, 200 mg compound (2) single oral, N=6, read-out: t1/2, Mean (converted)) was 89.5 h. It also gave a half-life ([3]; healthy male subjects, single oral 50 to 200 mg compound (2), read-out: elimination half life (t1/2) (converted)) of ~100 h, a Tmax ([3]; 50 mg compound (2) single oral, N=6) of 4 h and a Tmax ([3]; 100 mg compound (2) single oral, N=6) of 4 h. For the same compound, the Tmax ([3]; 150 mg compound (2) single oral, N=6) was 4 h, the Tmax ([3]; 200 mg compound (2) single oral, N=6) was 6 h and the “time of first quantifiable compound (1) concentration” value ([3]; post-dose, 20 subjects out of 24) was ~40 min.
